Reference: patent publication US9403874B2, “Peptides and use thereof” (IL YANG PHARM. CO.,LTD., priority 2012, dated 2016)

Tests used:
Type in all cases: cell-based
Conditions in all cases: 100 ng/me of peptide; EBV-infected B cells stimulated with anti-CD150; ELISA of culture supernatant
IL-1A = assay: Reduction of IL-1A secretion in activated B cells (ELISA)
Procedure: (§1) In order to determine the activity of the novel peptides synthesized in Example 1 for reducing the secretion of inflammatory cytokines, the activated pathogenic B cells were treated with each of the 18 types of synthesized novel peptides and the reduction in secretion of inflammatory cytokines from the B cells was monitored.
(§2) Specifically, in order to determine whether the novel peptides could weaken the pathogenic B cells which are involved in the development of disease symptoms, the in vitro B cells model which is similar to the joint infiltrative B cells of rheumatoid arthritis was used. The activated pathogenic B cell was generated by stimulating Ebstein Barr virus (EBV)-infected B cells with anti-CD150 antibodies, and the cells were treated with […] of each of the 18 types of novel peptide.
(§3) In order to confirm the effect of 18 types of novel peptides in reducing inflammatory cytokines, the secretion amount of various cytokines (IL-1A, IL-1B, IL-2, IL-4, IL-5, IL-6, IL-8, IL-10, IL-12A, IL-13, IL-17A, GM-CSF, IL-34) secreted from the activated B cells was measured. The supernatants of B cell culture were analyzed enzyme-linked immunosorbent assay (ELISA), and the difference in absorbance (450 nm-570 nm) of the color developing reagent was measured as test results. Based on the measured difference in absorbance (450 nm-570 nm) of the color developing reagent, the absorbance of cytokines secreted when treated with the 18 types of novel […] was calculated in percentage, while setting the absorbance corresponding to the cytokines secreted from the activated B cells stimulated by anti-CD150 as 100%.

IL-1B = assay: Reduction of IL-1B secretion in activated B cells (ELISA)
Procedure: as §1, §2, §3

IL-2 = assay: Reduction of IL-2 secretion in activated B cells (ELISA)
Procedure: as §1, §2, §3

IL-4 = assay: Reduction of IL-4 secretion in activated B cells (ELISA)
Procedure: as §1, §2, §3

IL-5 = assay: Reduction of IL-5 secretion in activated B cells (ELISA)
Procedure: as §1, §2, §3

IL-6 = assay: Reduction of IL-6 secretion in activated B cells (ELISA)
Procedure: as §1, §2, §3

IL-8 = assay: Reduction of IL-8 secretion in activated B cells (ELISA)
Procedure: as §1, §2, §3

IL-10 = assay: Reduction of IL-10 secretion in activated B cells (ELISA)
Procedure: as §1, §2, §3

IL-12A = assay: Reduction of IL-12A secretion in activated B cells (ELISA)
Procedure: as §1, §2, §3

IL-13 = assay: Reduction of IL-13 secretion in activated B cells (ELISA)
Procedure: as §1, §2, §3

IL-17A = assay: Reduction of IL-17A secretion in activated B cells (ELISA)
Procedure: as §1, §2, §3

IL-34 = assay: Reduction of IL-34 secretion in activated B cells (ELISA)
Procedure: as §1, §2, §3

GM-CSF = assay: Reduction of GM-CSF secretion in activated B cells (ELISA)
Procedure: as §1, §2, §3

Substance | Inhibition rate of each cytokine compared to CD150-stimulated EBV-t B cells (%) IL-1A (IL-1A) [%] | Inhibition rate of each cytokine compared to CD150-stimulated EBV-t B cells (%) IL-1B (IL-1B) [%] | Inhibition rate of each cytokine compared to CD150-stimulated EBV-t B cells (%) IL-2 (IL-2) [%] | Inhibition rate of each cytokine compared to CD150-stimulated EBV-t B cells (%) IL-4 (IL-4) [%] | Inhibition rate of each cytokine compared to CD150-stimulated EBV-t B cells (%) IL-5 (IL-5) [%] | Inhibition rate of each cytokine compared to CD150-stimulated EBV-t B cells (%) IL-6 (IL-6) [%] | Inhibition rate of each cytokine compared to CD150-stimulated EBV-t B cells (%) IL-8 (IL-8) [%] | Inhibition rate of each cytokine compared to CD150-stimulated EBV-t B cells (%) IL-10 (IL-10) [%] | Inhibition rate of each cytokine compared to CD150-stimulated EBV-t B cells (%) IL-12A (IL-12A) [%] | Inhibition rate of each cytokine compared to CD150-stimulated EBV-t B cells (%) IL-13 (IL-13) [%] | Inhibition rate of each cytokine compared to CD150-stimulated EBV-t B cells (%) IL-17A (IL-17A) [%] | Inhibition rate of each cytokine compared to CD150-stimulated EBV-t B cells (%) IL-34 (IL-34) [%] | Inhibition rate of each cytokine compared to CD150-stimulated EBV-t B cells (%) GM-CSF (GM-CSF) [%]
RDGRTD (SIS-1#17 peptide) | 18.8 | 20.5 | 17.0 | 32.0 | 14.0 | 16.8 | 22.0 | 15.8 | 16.0 | 14.8 | 23.8 | 20.8 | 14.8
PSPRDG (SIS-1#5 peptide) | 8.3 | 14.2 | 6.8 | 13.2 | 9.8 | 18.7 | 10.5 | 7.2 | 8.9 | 15.2 | 12.8 | 13.2 | 7.5
RDGRT (SIS-1#16 peptide) | 16.2 | 17.0 | 15.4 | 23.9 | 20.3 | 22.8 | 33.0 | 31.2 | 29.8 | 24.5 | 32.8 | 23.1 | 6.2
RTDG (SIS-1#7 peptide) | 6.3 | 5.3 | 7.4 | 10.2 | 3.5 | 11.8 | 3.2 | 5.3 | 11.4 | 3.6 | 9.5 | 2.9 | 4.5
DGRTDG (SIS-1#9 peptide) | 20.4 | 18.2 | 15.5 | 16.0 | 16.2 | 18.8 | 15.4 | 14.2 | 20.8 | 13.2 | 9.2 | 15.0 | 15.0
MSLPSPRDGRTDG (SIS-1#4 peptide) | 18.1 | 16.5 | 18.8 | 20.8 | 20.4 | 32.3 | 32.0 | 18.0 | 33.9 | 23.1 | 43.0 | 16.8 | 18.5
RDGR (SIS-1#15 peptide) | 11.5 | 5.7 | 12.7 | 6.3 | 6.4 | 4.8 | 15.0 | 7.2 | 10.8 | 7.2 | 10.1 | 6.0 | 1.5
GRTDG (SIS-1#10 peptide) | 7.8 | 4.2 | 11.4 | 19.5 | 24.2 | 25.0 | 17.9 | 7.5 | 29.8 | 25.7 | 25.0 | 27.0 | 13.0
